From patent US20240279218A1 (Hoffmann-La Roche Inc., priority 2016, published 2024)

Legend:
h-GABA-A α5β3γ2 [1] = biological target: T1, h-GABA-A α5β3γ2 (Homo sapiens (Human), UniProt P18507+P31644); assay: [3H]flumazenil competition binding assay, membranes of HEK293 cells expressing human GABAA receptors; settings: displacement of [3H]flumazenil 0.5 nM, HEK293 cells expressing human receptors, mean of two determinations; read-out: Ki h-GABA-A α5β3γ2
Experimental: The affinity of compounds at GABAA receptor subtypes was measured by competition for [3H]flumazenil (85 Ci/mmol; Roche) binding to HEK293 cells expressing rat (stably transfected) or human (transiently transfected) receptors of composition α1β3γ2, α2β3γ2, α3β3γ2 and α5β3γ2.
Cell pellets were suspended in Krebs-tris buffer (4.8 mM KCl, 1.2 mM CaCl2, 1.2 mM MgCl2, 120 mM NaCl, 15 mM Tris; pH 7.5; binding assay buffer), homogenized by polytron for ca. 20 sec on ice and centrifuged for 60 min at 4° C. (50000 g; Sorvall, rotor: SM24=20000 rpm). The cell pellets were resuspended in Krebs-tris buffer and homogenized by polytron for ca. 15 sec on ice. Protein was measured (Bradford method, Bio-Rad) and aliquots of 1 mL were prepared and stored at −80° C.
Assays were incubated to equilibrium for 1 hour at 4° C. and harvested onto GF/C uni-filters (Packard) by filtration using a Packard harvester and washing with ice-cold wash buffer (50 mM Tris; pH 7.5). After drying, filter-retained radioactivity was detected by liquid scintillation counting. Ki values were calculated using Excel-Fit (Microsoft) and are the means of two determinations.

h-GABA-A α5β3γ2 [2] = biological target: T1, h-GABA-A α5β3γ2; assay: Two-electrode voltage clamp electrophysiology in Xenopus oocytes expressing GABAA receptors, modulation of GABA EC20 current; format: cell-based; settings: Xenopus oocytes; for Efficacy (GABA) %: % modulation of GABA EC20 = 100*(Fold increase−1); for Fold increase h-GABA-A α5β3γ2 oocyte: GABA EC20, test compound at approx. 30 fold its Ki
Experimental: Xenopus laevis oocytes at maturation stages V-VI were used for the expression of cloned mRNA encoding GABAA receptor subunits. Oocytes ready for RNA micro-injection were bought from Ecocyte, Castrop-Rauxel, Germany and stored in modified Barth's medium (composition in mM: NaCl 88, KCl 1, NaHCO32.4, HEPES 10, MgSO4 0.82, CaNO3 0.33, CaCl2) 0.33, pH=7.5) at 20° C. until the experiment.
Oocytes were plated in 96-well plates to be used in an automated instrument (Robo-ocyte, MultiChannelSystems, Reutlingen, Germany) for microinjection and electrophysiological recordings. Approximately 50 nl of an aqueous solution containing the RNA transcripts for the subunits of the desired GABAA receptor was injected into each oocyte. RNA concentrations ranged between 0.3 and 16 ng/μl/subunit and were adjusted in pilot experiments to obtain GABA responses of a suitable size and a maximal effect of the reference modulator, Beta-CCM (β-CCM), a betacarboline negative allosteric modulator (NAM) at the GABAA receptor benzodiazepine (BZD) binding site or Midazolam, a benzodiazepine positive allosteric modulator (PAM) at the GABAA receptor benzodiazepine (BZD) binding site. The concentration of the γ2 subunit encoding RNA usually was 5-to 10-fold higher than the RNAs encoding the other subunits. Oocytes were kept in modified Barth's medium (composition in mM: NaCl 88, KCl 1, NaHCO3 4, HEPES 10, MgSO4 0.82, CaNO3 0.33, CaCl2 0.33, pH=7.5) at 20° C. until the experiment.
Electrophysiological experiments were performed on days 3 to 5 after the micro-injection of mRNA. During the experiment the oocytes were constantly superfused by a solution containing (in mM) NaCl 90, KCl 1, HEPES 5, MgCl2 1, CaCl2 1 (pH 7.4). Oocytes were impaled by two glass microelectrodes (resistance: 0.4 MΩ) which were filled with a solution containing KCl 1M+K-acetate 1.5 M and voltage-clamped to −80 mV. The recordings were performed at room temperature using the Roboocyte two-electrode voltage clamp system (Multichannelsystem). After an initial equilibration period of 1.5 min GABA was added for 1.5 min at a concentration evoking approximately 20% of a maximal current response (EC20). After another rest interval of 2.5 min GABA was again added evoking a response of similar amplitude and shape. […] Current traces were recorded at a digitization rate of 10 Hz during and shortly before and after the GABA application.
Each compound and concentration was tested on at least 3 oocytes.
For the analysis, the digitized current traces of the first and second GABA response were superimposed and, if necessary, rescaled to equal maximal amplitudes. The ratio between the two responses during the time interval of test compound application was calculated point by point. The extremum of the resulting “ratio trace” was taken as the efficacy (“Fold increase”) of the compound expressed as “% modulation of GABA EC20” (100*(Fold increase−1)).

| SMILES | Ki (h-GABA-A α5β3γ2 [1]) [nM] | Efficacy (GABA) % (h-GABA-A α5β3γ2 [2]) [%] | Fold increase h-GABA-A α5β3γ2 oocyte (h-GABA-A α5β3γ2 [2]) |
| --- | --- | --- | --- |
| CC[C@@H](CC#N)NC(=O)c1ccc(OCc2c(-c3ccc(C)nc3)noc2C)nn1 [Example 88, (S)—N-(1-cyanobutan-2-yl)-6-((5-methyl-3-(6-methylpyridin-3-yl)isoxazol-4-yl)methoxy)pyridazine-3-carboxamide] | 40.9 | 68 | 1.68 |
| Cc1onc(-c2ccc(C3CC3)nc2)c1COc1ccc(C(=O)NC2CCOCC2)cn1 [Example 128, 6-((3-(6-cyclopropyl-3-pyridyl)-5-methyl-isoxazol-4-yl)methoxy)-N-tetrahydropyran-4-yl-pyridine-3-carboxamide] | 6.1 | 107 | 2.07 |
| Cc1ccc(-c2noc(C)c2COc2ccc(C(=O)N[C@H]3CCCC[C@@H]3O)nn2)cn1 [Example 24, N-((1S,2S)-2-hydroxycyclohexyl)-6-((5-methyl-3-(6-methylpyridin-3-yl)isoxazol-4-yl)methoxy)pyridazine-3-carboxamide] | 41.6 | 63 | 1.63 |
| Cc1ccc(-c2noc(C)c2COc2ccc(C(=O)NC(C)C)nn2)cn1 [Example 38, N-isopropyl-6-((5-methyl-3-(6-methylpyridin-3-yl)isoxazol-4-yl)methoxy)pyridazine-3-carboxamide] | 7.5 | 84 | 1.84 |
| Cc1ccc(-c2noc(C)c2COc2cnc(C(=O)NC3COC3)cn2)cn1 [Example 77, 5-((5-methyl-3-(6-methyl-3-pyridyl)isoxazol-4-yl)methoxy)-N-(oxetan-3-yl)pyrazine-2-carboxamide] | 5.2 | 11 | 1.11 |
| CCO[C@H]1C[C@@H](NC(=O)c2ccc(OCc3c(-c4ccc(C)nc4)noc3C)nn2)C1 [Example 171, cis-N-(3-ethoxycyclobutyl)-6-((5-methyl-3-(6-methylpyridin-3-yl)isoxazol-4-yl)methoxy)pyridazine-3-carboxamide] | 18.1 | 72 | 1.72 |
| Cc1ccc(-c2noc(C)c2COc2ccc(C(=O)N3CC(F)(F)C3)nn2)cn1 [Example 47, (3,3-difluoroazetidin-1-yl)(6-((5-methyl-3-(6-methylpyridin-3-yl)isoxazol-4-yl)methoxy)pyridazin-3-yl)methanone] | 13 | 68 | 1.68 |
| Cc1ccc(-c2noc(C)c2COc2ccc(C(=O)NC3CCOCC3)cn2)cn1 [Example 1, 6-((5-methyl-3-(6-methyl-3-pyridyl)isoxazol-4-yl)methoxy)-N-tetrahydropyran-4-yl-pyridine-3-carboxamide] | 4.8 | 42 | 1.42 |
| CO[C@H]1C[C@@H](NC(=O)c2ccc(OCc3c(-c4ccc(C)nc4)noc3C)nn2)C1 [Example 164, cis-N-(3-methoxycyclobutyl)-6-((5-methyl-3-(6-methyl-3-pyridyl)isoxazol-4-yl)methoxy)pyridazine-3-carboxamide] | 11.5 | 95 | 1.95 |
| Cc1ccc(-c2noc(C)c2COc2ccc(C(=O)N3CCC(F)(F)C3)nn2)cn1 [Example 48, (3,3-difluoropyrrolidin-1-yl)(6-((5-methyl-3-(6-methylpyridin-3-yl)isoxazol-4-yl)methoxy)pyridazin-3-yl)methanone] | 31.6 | 74 | 1.74 |
| Cc1ccc(-c2noc(C)c2COc2ccc(C(=O)NC(C)(C)CO)nn2)cn1 [Example 32] | 8.5 | 79 | 1.79 |
| Cc1ccc(-c2noc(C)c2COc2ccc(C(=O)N[C@@H]3CC[C@@H](OCC(F)F)C3)nn2)cn1 [Example 191, N-((1R,3R)-3-(2,2-difluoroethoxy)cyclopentyl)-6-((5-methyl-3-(6-methylpyridin-3-yl)isoxazol-4-yl)methoxy)pyridazine-3-carboxamide] | 11.2 | 60 | 1.6 |
| CCc1onc(-c2ccc(C)nc2)c1COc1ccc(C(=O)NC2(C)COC2)nn1 [Example 122, 6-((5-ethyl-3-(6-methylpyridin-3-yl)isoxazol-4-yl)methoxy)-N-(3-methyloxetan-3-yl)pyridazine-3-carboxamide] | 26.4 | 126 | 2.26 |
| Cc1ccc(-c2noc(C)c2COc2ccc(C(=O)N[C@H]3CC[C@H](OCC(F)F)CC3)nn2)cn1 [Example 194, trans-N-(4-(2,2-difluoroethoxy)cyclohexyl)-6-((5-methyl-3-(6-methylpyridin-3-yl)-1,2-oxazol-4-yl)methoxy)pyridazine-3-carboxamide] | 13.3 | 84 | 1.84 |
| CNC(=O)c1ccc(OCc2c(-c3ccc(C)nc3)noc2C)nc1F [Example 136, 2-fluoro-N-methyl-6-((5-methyl-3-(6-methylpyridin-3-yl)isoxazol-4-yl)methoxy)pyridine-3-carboxamide] | 14.8 | 54 | 1.54 |
| Cc1ccc(-c2noc(C)c2COc2ccc(C(=O)N[C@@H]3CCOC[C@H]3O)cn2)cn1 [Example 134, N-((3S,4R)-3-hydroxytetrahydro-2H-pyran-4-yl)-6-((5-methyl-3-(6-methylpyridin-3-yl)isoxazol-4-yl)methoxy)pyridine-3-carboxamide] | 20.8 | 66 | 1.66 |
| Cc1onc(-c2ccc(Cl)nc2)c1COc1ccc(C(=O)NC2(C)COC2)nn1 [Example 161, 6-((3-(6-chloropyridin-3-yl)-5-methylisoxazol-4-yl)methoxy)-N-(3-methyloxetan-3-yl)pyridazine-3-carboxamide] | 8 | 60 | 1.6 |
| Cc1ccc(-c2noc(C)c2COc2ccc(C(=O)N[C@H]3CCCOC3)nn2)cn1 [Example 103, (S)-6-((5-methyl-3-(6-methylpyridin-3-yl)isoxazol-4-yl)methoxy)-N-(tetrahydropyran-3-yl)pyridazine-3-carboxamide] | 79 | 81 | 1.81 |
